What was measured:
Parameters in all cases: scale not given here
GLXMAW Soybean, Williams [1] = assay: Preemergence herbicidal evaluation, GLXMAW; format: in vivo, Glycine max, (L.) Merr. cv Williams; conditions: preemergence
Procedure, shortened: (§1)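 Seeds mixed with potting soil in cups, then sprayed preemergence with aqueous acetone test solution at about 0.013 to 0.800 kg per hectare equivalent. Cups kept under standard greenhouse care; plants rated on a visual scale four to five weeks after treatment.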

ECHOG Barnyardgrass [2] = assay: Postemergence herbicidal evaluation, ECHOG; format: in vivo, Echinochloa crus-galli, (L.) Beau; conditions: postemergence spray, rated about two-three weeks after treatment
Procedure, shortened: (§2)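 Two-week-old seedlings sprayed postemergence with compound in 80/20 acetone/water plus 1.0% methylated seed oil, at about 0.006–0.400 kg/ha, through a nozzle at 40 psi. Plants kept under greenhouse conditions and visually rated about two–three weeks after treatment; ratings from repeat tests averaged.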

ORYSAT Rice, Tebonnet [3] = assay: Preemergence herbicidal evaluation, ORYSAT; format: in vivo, Oryza sativa, (L.); conditions: preemergence
Procedure, shortened: as §1

CASOB Sicklepod [4] = assay: Preemergence herbicidal evaluation, CASOB; format: in vivo, Cassia obtusifolia, L.; conditions: preemergence
Procedure, shortened: as §1

GALAP Galium [5] = assay: Preemergence herbicidal evaluation, GALAP; format: in vivo, Galium aparine; conditions: preemergence
Procedure, shortened: as §1

ABUTH Velvetleaf [6] = assay: Preemergence herbicidal evaluation, ABUTH; format: in vivo, Abutilon theophrasti, Medic.; conditions: preemergence
Procedure, shortened: as §1

GALAP Galium [7] = assay: Postemergence herbicidal evaluation, GALAP; format: in vivo, Galium aparine; conditions: postemergence spray, rated about two-three weeks after treatment
Procedure, shortened: as §2

ABUTH Velvetleaf [8] = assay: Postemergence herbicidal evaluation, ABUTH; format: in vivo, Abutilon theophrasti, Medic.; conditions: postemergence spray, rated about two-three weeks after treatment
Procedure, shortened: as §2

ZEAMX Corn, Field [9] = assay: Preemergence herbicidal evaluation, ZEAMX; format: in vivo, Zea mays, L. (Sammel-Bezeichnung); conditions: preemergence
Procedure, shortened: as §1

CASOB Sicklepod [10] = assay: Postemergence herbicidal evaluation, CASOB; format: in vivo, Cassia obtusifolia, L.; conditions: postemergence spray, rated about two-three weeks after treatment
Procedure, shortened: as §2

ZEAMX Corn, Field [11] = assay: Postemergence herbicidal evaluation, ZEAMX; format: in vivo, Zea mays, L. (Sammel-Bezeichnung); conditions: postemergence spray, rated about two-three weeks after treatment
Procedure, shortened: as §2

[12] = tested on: TRZAWR Wheat, Winter, cv Riband; assay: Postemergence herbicidal evaluation, TRZAWR; format: in vivo, Triticum aestivum; conditions: postemergence spray, rated about two-three weeks after treatment
Procedure, shortened: as §2

ORYSAT Rice, Tebonnet [13] = assay: Postemergence herbicidal evaluation, ORYSAT; format: in vivo, Oryza sativa, (L.); conditions: postemergence spray, rated about two-three weeks after treatment
Procedure, shortened: as §2

AMBEL Ragweed, Common [14] = assay: Preemergence herbicidal evaluation, AMBEL; format: in vivo, Ambrosia artemisifolia, L.; conditions: preemergence
Procedure, shortened: as §1

[15] = tested on: CHEAL Lambsquarters, Common; assay: Preemergence herbicidal evaluation, CHEAL; format: in vivo, Chenopodium album, L.; conditions: preemergence
Procedure, shortened: as §1

SETVI Foxtail, Green [16] = assay: Postemergence herbicidal evaluation, SETVI; format: in vivo, Setaria viridis, (L.) Beau; conditions: postemergence spray, rated about two-three weeks after treatment
Procedure, shortened: as §2

GLXMAW Soybean, Williams [17] = assay: Postemergence herbicidal evaluation, GLXMAW; format: in vivo, Glycine max, (L.) Merr. cv Williams; conditions: postemergence spray, rated about two-three weeks after treatment
Procedure, shortened: as §2

SETVI Foxtail, Green [18] = assay: Preemergence herbicidal evaluation, SETVI; format: in vivo, Setaria viridis, (L.) Beau; conditions: preemergence
Procedure, shortened: as §1

[19] = tested on: IPOHE Morningglory, Ivyleaf; assay: Postemergence herbicidal evaluation, IPOHE; format: in vivo, Ipomoea hederacea, (L.) Jacq.; conditions: postemergence spray, rated about two-three weeks after treatment
Procedure, shortened: as §2

AMBEL Ragweed, Common [20] = assay: Postemergence herbicidal evaluation, AMBEL; format: in vivo, Ambrosia artemisifolia, L.; conditions: postemergence spray, rated about two-three weeks after treatment
Procedure, shortened: as §2

ECHOG Barnyardgrass [21] = assay: Preemergence herbicidal evaluation, ECHOG; format: in vivo, Echinochloa crus-galli, (L.) Beau; conditions: preemergence
Procedure, shortened: as §1

[22] = tested on: CHEAL Lambsquarters, Common; assay: Postemergence herbicidal evaluation, CHEAL; format: in vivo, Chenopodium album, L.; conditions: postemergence spray, rated about two-three weeks after treatment
Procedure, shortened: as §2

[23] = tested on: TRZAWR Wheat, Winter, cv Riband; assay: Preemergence herbicidal evaluation, TRZAWR; format: in vivo, Triticum aestivum; conditions: preemergence
Procedure, shortened: as §1

[24] = tested on: IPOHE Morningglory, Ivyleaf; assay: Preemergence herbicidal evaluation, IPOHE; format: in vivo, Ipomoea hederacea, (L.) Jacq.; conditions: preemergence
Procedure, shortened: as §1

Cc1ccc(O)cc1-n1nnc2cc(F)c(-n3c(=O)cc(C(F)(F)F)n(C)c3=O)cc21 [Example 32]
2.0: Postemergence herbicidal rating ZEAMX (ZEAMX Corn, Field [11]; 0.008 kg/ha) | Postemergence herbicidal rating ORYSAT (ORYSAT Rice, Tebonnet [13]; 0.062 kg/ha) | Postemergence herbicidal rating GLXMAW (GLXMAW Soybean, Williams [17]; 0.008 kg/ha)
1.0: GLXMAW herbicidal rating (GLXMAW Soybean, Williams [1]; rate 0.125 kg/ha) | ZEAMX herbicidal rating (ZEAMX Corn, Field [9]; rate 0.125 kg/ha) | Postemergence herbicidal rating TRZAWR ([12]; 0.008 kg/ha) | Postemergence herbicidal rating ORYSAT (ORYSAT Rice, Tebonnet [13]; 0.008 kg/ha)
1.5: Postemergence herbicidal rating ORYSAT (ORYSAT Rice, Tebonnet [13]; 0.016 kg/ha) | Postemergence herbicidal rating ORYSAT (ORYSAT Rice, Tebonnet [13]; 0.032 kg/ha)
4.0: ABUTH herbicidal rating (ABUTH Velvetleaf [6]; rate 0.125 kg/ha) | Postemergence herbicidal rating ABUTH (ABUTH Velvetleaf [8]; 0.062 kg/ha)
3.0: Postemergence herbicidal rating TRZAWR ([12]; 0.062 kg/ha) | Postemergence herbicidal rating GLXMAW (GLXMAW Soybean, Williams [17]; 0.032 kg/ha) | Postemergence herbicidal rating GLXMAW (GLXMAW Soybean, Williams [17]; 0.062 kg/ha)
2.5: Postemergence herbicidal rating ZEAMX (ZEAMX Corn, Field [11]; 0.016 kg/ha) | Postemergence herbicidal rating ZEAMX (ZEAMX Corn, Field [11]; 0.032 kg/ha) | Postemergence herbicidal rating ZEAMX (ZEAMX Corn, Field [11]; 0.062 kg/ha) | Postemergence herbicidal rating TRZAWR ([12]; 0.016 kg/ha) | Postemergence herbicidal rating TRZAWR ([12]; 0.032 kg/ha) | Postemergence herbicidal rating GLXMAW (GLXMAW Soybean, Williams [17]; 0.016 kg/ha)
6.0: CHEAL herbicidal rating ([15]; rate 0.125 kg/ha)
0.0: GLXMAW herbicidal rating (GLXMAW Soybean, Williams [1]; rate 0.016 kg/ha) | GLXMAW herbicidal rating (GLXMAW Soybean, Williams [1]; rate 0.032 kg/ha) | GLXMAW herbicidal rating (GLXMAW Soybean, Williams [1]; rate 0.062 kg/ha) | Postemergence herbicidal rating ECHCG (ECHOG Barnyardgrass [2]; 0.008 kg/ha) | Postemergence herbicidal rating ECHCG (ECHOG Barnyardgrass [2]; 0.016 kg/ha) | Postemergence herbicidal rating ECHCG (ECHOG Barnyardgrass [2]; 0.032 kg/ha) | Postemergence herbicidal rating ECHCG (ECHOG Barnyardgrass [2]; 0.062 kg/ha) | ORYSAT herbicidal rating (ORYSAT Rice, Tebonnet [3]; rate 0.016 kg/ha) | ORYSAT herbicidal rating (ORYSAT Rice, Tebonnet [3]; rate 0.032 kg/ha) | ORYSAT herbicidal rating (ORYSAT Rice, Tebonnet [3]; rate 0.062 kg/ha) | ORYSAT herbicidal rating (ORYSAT Rice, Tebonnet [3]; rate 0.125 kg/ha) | CASOB herbicidal rating (CASOB Sicklepod [4]; rate 0.016 kg/ha) | CASOB herbicidal rating (CASOB Sicklepod [4]; rate 0.032 kg/ha) | CASOB herbicidal rating (CASOB Sicklepod [4]; rate 0.062 kg/ha) | CASOB herbicidal rating (CASOB Sicklepod [4]; rate 0.125 kg/ha) | GALAP herbicidal rating (GALAP Galium [5]; rate 0.016 kg/ha) | GALAP herbicidal rating (GALAP Galium [5]; rate 0.032 kg/ha) | GALAP herbicidal rating (GALAP Galium [5]; rate 0.062 kg/ha) | ABUTH herbicidal rating (ABUTH Velvetleaf [6]; rate 0.016 kg/ha) | ABUTH herbicidal rating (ABUTH Velvetleaf [6]; rate 0.032 kg/ha) | ABUTH herbicidal rating (ABUTH Velvetleaf [6]; rate 0.062 kg/ha) | Postemergence herbicidal rating GALAP (GALAP Galium [7]; 0.008 kg/ha) | Postemergence herbicidal rating GALAP (GALAP Galium [7]; 0.016 kg/ha) | Postemergence herbicidal rating GALAP (GALAP Galium [7]; 0.032 kg/ha) | Postemergence herbicidal rating GALAP (GALAP Galium [7]; 0.062 kg/ha) | Postemergence herbicidal rating ABUTH (ABUTH Velvetleaf [8]; 0.008 kg/ha) | Postemergence herbicidal rating ABUTH (ABUTH Velvetleaf [8]; 0.016 kg/ha) | Postemergence herbicidal rating ABUTH (ABUTH Velvetleaf [8]; 0.032 kg/ha) | ZEAMX herbicidal rating (ZEAMX Corn, Field [9]; rate 0.016 kg/ha) | ZEAMX herbicidal rating (ZEAMX Corn, Field [9]; rate 0.032 kg/ha) | ZEAMX herbicidal rating (ZEAMX Corn, Field [9]; rate 0.062 kg/ha) | Postemergence herbicidal rating CASOB (CASOB Sicklepod [10]; 0.008 kg/ha) | Postemergence herbicidal rating CASOB (CASOB Sicklepod [10]; 0.016 kg/ha) | Postemergence herbicidal rating CASOB (CASOB Sicklepod [10]; 0.032 kg/ha) | Postemergence herbicidal rating CASOB (CASOB Sicklepod [10]; 0.062 kg/ha) | AMBEL herbicidal rating (AMBEL Ragweed, Common [14]; rate 0.016 kg/ha) | AMBEL herbicidal rating (AMBEL Ragweed, Common [14]; rate 0.032 kg/ha) | AMBEL herbicidal rating (AMBEL Ragweed, Common [14]; rate 0.062 kg/ha) | AMBEL herbicidal rating (AMBEL Ragweed, Common [14]; rate 0.125 kg/ha) | CHEAL herbicidal rating ([15]; rate 0.016 kg/ha) | CHEAL herbicidal rating ([15]; rate 0.032 kg/ha) | CHEAL herbicidal rating ([15]; rate 0.062 kg/ha) | Postemergence herbicidal rating SETVI (SETVI Foxtail, Green [16]; 0.008 kg/ha) | Postemergence herbicidal rating SETVI (SETVI Foxtail, Green [16]; 0.016 kg/ha) | Postemergence herbicidal rating SETVI (SETVI Foxtail, Green [16]; 0.032 kg/ha) | Postemergence herbicidal rating SETVI (SETVI Foxtail, Green [16]; 0.062 kg/ha) | SETVI herbicidal rating (SETVI Foxtail, Green [18]; rate 0.016 kg/ha) | SETVI herbicidal rating (SETVI Foxtail, Green [18]; rate 0.032 kg/ha) | SETVI herbicidal rating (SETVI Foxtail, Green [18]; rate 0.062 kg/ha) | SETVI herbicidal rating (SETVI Foxtail, Green [18]; rate 0.125 kg/ha) | Postemergence herbicidal rating IPOHE ([19]; 0.008 kg/ha) | Postemergence herbicidal rating IPOHE ([19]; 0.016 kg/ha) | Postemergence herbicidal rating IPOHE ([19]; 0.032 kg/ha) | Postemergence herbicidal rating IPOHE ([19]; 0.062 kg/ha) | Postemergence herbicidal rating AMBEL (AMBEL Ragweed, Common [20]; 0.008 kg/ha) | Postemergence herbicidal rating AMBEL (AMBEL Ragweed, Common [20]; 0.016 kg/ha) | Postemergence herbicidal rating AMBEL (AMBEL Ragweed, Common [20]; 0.032 kg/ha) | Postemergence herbicidal rating AMBEL (AMBEL Ragweed, Common [20]; 0.062 kg/ha) | ECHCG herbicidal rating (ECHOG Barnyardgrass [21]; rate 0.016 kg/ha) | ECHCG herbicidal rating (ECHOG Barnyardgrass [21]; rate 0.032 kg/ha) | ECHCG herbicidal rating (ECHOG Barnyardgrass [21]; rate 0.062 kg/ha) | ECHCG herbicidal rating (ECHOG Barnyardgrass [21]; rate 0.125 kg/ha) | Postemergence herbicidal rating CHEAL ([22]; 0.008 kg/ha) | Postemergence herbicidal rating CHEAL ([22]; 0.016 kg/ha) | Postemergence herbicidal rating CHEAL ([22]; 0.032 kg/ha) | Postemergence herbicidal rating CHEAL ([22]; 0.062 kg/ha) | TRZAWR herbicidal rating ([23]; rate 0.016 kg/ha) | TRZAWR herbicidal rating ([23]; rate 0.032 kg/ha) | TRZAWR herbicidal rating ([23]; rate 0.062 kg/ha) | TRZAWR herbicidal rating ([23]; rate 0.125 kg/ha) | IPOHE herbicidal rating ([24]; rate 0.016 kg/ha) | IPOHE herbicidal rating ([24]; rate 0.032 kg/ha) | IPOHE herbicidal rating ([24]; rate 0.062 kg/ha) | IPOHE herbicidal rating ([24]; rate 0.125 kg/ha)

Source: patent US20020111274A1, “1-alkyl-3-[1-(substituted phenyl) benzotriazol-6-yl] uracils” (BASF Aktiengesellschaft, priority 2000, published 2002)
